Measurements published in patent US9957230B2, “Synergistic compositions” (Cadila Healthcare Limited, priority 2013, dated 2018).

Tests used:
Assay type in all cases: in vivo
db/db mice [1] = experiment: Antidiabetic activity with Exenatide or Glimepiride in db/db mice (studies VII and VIII): non-fasting serum glucose; conditions: Compound Ia 0.1 mg/kg
Excerpt: The in-vivo efficacy for antidiabetic activity was done in male and female db/db mice of 12-16 weeks of age. Generally obese and diabetic animals are insulin resistant and have abnormalities in glucose and lipid metabolism. The development of diabetes and beta cell dysfunction in these animal models closely parallels the pathophysiology of the disease condition in humans. […] They progressively develop into insulinopenia with age, a feature commonly observed in last stage of type-2 diabetes, when blood sugar levels are insufficiently controlled. Therefore, this genetic model proves to be suitable for predicting the likely therapeutic benefit of novel euglycemic agents in human type-2 diabetes.
(§1) In this experiment, 49 db/db mice of 12-16 week were divided into 7 groups and as per their day 0 serum glucose levels. […] Detail treatments and routes of administrations were mentioned in Table no. 27. The treatment was given once daily for 7 days.
(§2) The blood was collected by retro-orbital sinus puncture method under light ether anesthesia on day 0 (pretreatment) and on day 6 (one hour after dose administration) for non-fasting glucose analysis and oral glucose tolerance test (OGTT) was performed on day 7 of the treatment in fasting condition. After blood collection serum was separated and analyzed glucose analysis using Spectra max and commercial diagnostic kits. The OGTT procedure followed is as given below—
(§3) The calculation for antidiabetic activity i.e. effect on serum glucose and improvement in glucose Area Under Curve (AUC) was calculated using the excel sheet and Graph Pad Prism software. The day-0 and day-6 glucose values of vehicle control and treatment were considered for calculating the effect on serum glucose. The effect on glucose AUC was calculated using the OGTT glucose levels at different time points and the improvement in glucose AUC were the reduction in glucose AUC after the treatment during OGTT.

db/db mice [2] = experiment: Oral glucose tolerance test in db/db mice (studies VII and VIII); conditions: Compound Ia 0.1 mg/kg, Glimepiride 2 mg/kg p.o.; for % improvement in AUC glucose vs control: Table 31 and text, OGTT after 7 days of treatment
Excerpt: as §1, §2
Oral Glucose Tolerance Test (OGTT): One day before OGTT all animals were kept on overnight fasting and on the day of OGTT, day 7 of the treatment each animal was dosed with a single dose of vehicle/test compounds administered orally and 60-min post dosing blood was collected (0 min) and glucose load (2 gm/kg/10 ml) administered per orally. Blood was then collected at time points corresponding to 30, 60 and 120 min after glucose load administration. Serum was separated and analyzed for glucose using Spectra max and commercial diagnostic kits.
as §3

db/db mice [3] = experiment: Antidiabetic activity in db/db mice (studies I and II): non-fasting serum glucose; conditions: Compound (Ia) 0.1 mg/kg
Excerpt: The in-vivo efficacy for antidiabetic activity was done for (I) and (II) individually with db/db mice of 13-14 weeks of age.
8. […] 8. The treatment was given oral gavages once daily for 14 days. […]

db/db mice [4] = experiment: Oral glucose tolerance test in db/db mice (studies I and II); conditions: Table 10; OGTT day 14, fasting, glucose load 2 gm/kg; Compound (Ia) 0.1 mg/kg, Sitagliptin 3 mg/kg p.o.
Excerpt: 8. […] 8. The treatment was given oral gavages once daily for 14 days.
The OGTT procedure followed is as given below—

| Compound | Serum Glucose (mg/dl) Day 0 (db/db mice [1]; Table 30, Day 0 (pretreatment), male and female db/db mice, Glimepiride 2 mg/kg p.o. once daily) | Serum Glucose (mg/dl) Day 6 (db/db mice [1]; Table 30, Day 6, one hour after dose, non-fasting, Glimepiride 2 mg/kg p.o. once daily) | % Change Day 6 vs Day 0 (db/db mice [1]; Table 30, serum glucose, Glimepiride 2 mg/kg p.o.) | % Change Vs control (db/db mice [1]; Table 30 and text, serum glucose day 6 vs vehicle control, Glimepiride 2 mg/kg p.o.) | AUC Glucose (db/db mice [2]; Table 31, OGTT day 7, fasting, glucose load 2 gm/kg) | % improvement in AUC glucose vs control (db/db mice [2]) | % improvement in AUC glucose vs control (db/db mice [2]; listed as glimepiride) | Serum Glucose (mg/dl) Day 0 (db/db mice [3]; Table 9, Day 0 (pretreatment), female db/db mice, Sitagliptin 3 mg/kg p.o. once daily) | Serum Glucose (mg/dl) Day 12 (db/db mice [3]; Table 9, Day 12, non-fasting, female db/db mice, Sitagliptin 3 mg/kg p.o. once daily) | % Change Vs control (db/db mice [3]; Table 9, serum glucose day 12 vs vehicle control, Sitagliptin 3 mg/kg p.o. once daily) | % Change Day 12 vs Day 0 (db/db mice [3]; Table 9, serum glucose, Sitagliptin 3 mg/kg p.o. once daily) | reduction in serum glucose (db/db mice [3]; female db/db mice, Sitagliptin 3 mg/kg, Metformin 150 mg/kg) | AUC Glucose (db/db mice [4]) |
| --- | --- | --- | --- | --- | --- | --- | --- | --- | --- | --- | --- | --- | --- |
| CCC1=C(C)CN(C(=O)NCCc2ccc(S(=O)(=O)NC(=O)N[C@H]3CC[C@H](C)CC3)cc2)C1=O [Glimepiride, reference compound] | 402.0 mg/dL | 506.7 mg/dL | 26.9% | 10.1% | 62529.0 mg·min/dL | −2.6% | does not any improvement | – | – | – | – | – | – |
| N[C@@H](CC(=O)N1CCn2c(nnc2C(F)(F)F)C1)Cc1cc(F)c(F)cc1F [Sitagliptin, reference compound] | – | – | – | – | – | – | – | 407.9 ± 34.5 mg/dL | 485.3 ± 50.5 mg/dL | 18.5 ± 5.0% | 18.3 ± 5.0% | does not show any reduction rather it has shown slight increase in serum glucose | 64655.9 ± 6300.6 mg·min/dL |
